According to the supplement of paper PMC10307832:

Legend:
Experiment in all cases: relative viability (nuclei count vs DMSO), 5 days (fraction); higher = more cells survive
[1] = compound: COc1cc2ncn(-c3cc(OCc4ccccc4C(F)(F)F)c(C(N)=O)s3)c2cc1OC
Summary of the method: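 Lung cancer cell lines in 1536-well plates were exposed by pinning to five library-drug doses (not always all listed) √10 apart, following an overnight hold at 37 °C. MetaXpress counted Hoechst-stained nuclei from 4× images taken after 5 days without medium change. Viability is the median ratio of treated-well to vehicle-well nuclei across plates. Plates required control CV below 25% and at least one doubling.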

[2] = compound: COc1cc2ncn(-c3cc(OCc4ccccc4C(F)(F)F)c(C(N)=O)s3)c2cc1OC + N=C(N)NC(=N)NCCc1ccccc1 [Phenformin] (partner 250 µM)
Summary of the method: (§1)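 A single step with final 0.05% Triton X-100, 1% formaldehyde and 1 ug/ml Hoechst fixed the cells and stained nuclei 5 days after treatment. Lung cancer cell lines in 1536-well plates had been treated by pin tool the day after seeding with one drug alone or a fixed anchor-drug dose plus five library-drug doses (not always all listed) in √10 steps, and nuclei were counted on 4× images. Relative viability is the ratio of nuclei in treated wells to nuclei in vehicle wells, taken as the median of duplicate plates.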

[3] = compound: COc1cc2ncn(-c3cc(OCc4ccccc4C(F)(F)F)c(C(N)=O)s3)c2cc1OC + COc1cccc2cc(-c3nc([C@H]4CC[C@H](C(=O)O)CC4)n4ncnc(N)c34)[nH]c12 [OSI-027] (partner 0.5 µM)
Summary of the method: as §1

[4] = compound: COc1cc2ncn(-c3cc(OCc4ccccc4C(F)(F)F)c(C(N)=O)s3)c2cc1OC + CC(=O)Nc1cccc(-n2c(=O)n(C3CC3)c(=O)c3c(Nc4ccc(I)cc4F)n(C)c(=O)c(C)c32)c1 [Trametinib] (partner 0.02 µM)
Summary of the method: as §1

Row | Cell Line | relative viability ([1]; 0.05 µM) | relative viability ([1]; 0.1581 µM) | relative viability ([1]; 0.5 µM) | relative viability ([1]; 1.581 µM) | relative viability ([1]; 5 µM) | relative viability ([2]; first compound 0.05 µM) | relative viability ([2]; first compound 0.1581 µM) | relative viability ([2]; first compound 0.5 µM) | relative viability ([2]; first compound 1.581 µM) | relative viability ([2]; first compound 5 µM) | relative viability ([3]; first compound 0.05 µM) | relative viability ([3]; first compound 0.1581 µM) | relative viability ([3]; first compound 0.5 µM) | relative viability ([3]; first compound 5 µM) | relative viability ([4]; first compound 0.05 µM) | relative viability ([4]; first compound 0.1581 µM) | relative viability ([4]; first compound 0.5 µM) | relative viability ([4]; first compound 1.581 µM) | relative viability ([4]; first compound 5 µM) | relative viability ([3]; first compound 1.581 µM)
1 | 201T | 0.994 | 1.02 | 0.995 | 0.377 | 0.294 | 0.482 | 0.252 | 0.413 | 0.242 | 0.205 | 0.755 | 0.699 | 0.672 | 0.369 | 0.707 | 0.728 | 0.691 | 0.647 | 0.301 | –
2 | A549 | 0.987 | 1.01 | 0.399 | 0.0506 | 0.054 | 0.152 | 0.145 | 0.0554 | 0.0361 | 0.0267 | – | – | – | – | – | – | – | – | – | –
3 | A-427 | 1.05 | 1 | 0.886 | 0.297 | 0.128 | 0.336 | 0.277 | 0.25 | 0.151 | 0.0968 | 0.54 | 0.339 | 0.432 | 0.114 | 0.833 | 0.52 | 0.59 | 0.336 | 0.187 | 0.158
4 | ABC-1 | 0.807 | 0.937 | 0.736 | 0.311 | 0.241 | 0.239 | 0.255 | 0.226 | 0.172 | 0.181 | 0.629 | 0.437 | 0.248 | 0.191 | – | – | – | – | – | 0.207
5 | BEN | 1.01 | 0.965 | 0.845 | 0.396 | 0.383 | 0.262 | 0.28 | 0.217 | 0.218 | 0.206 | 0.272 | 0.307 | 0.278 | 0.233 | 1.16 | 1.03 | 0.954 | 0.546 | 0.52 | 0.205
6 | CAL-12T | 0.827 | 0.836 | 0.565 | 0.249 | 0.193 | 0.524 | 0.339 | 0.21 | 0.153 | 0.138 | 0.535 | 0.411 | 0.149 | 0.141 | 0.387 | 0.278 | 0.272 | 0.178 | 0.161 | 0.129
7 | COR-L23 | 1.05 | 1.03 | 0.692 | 0.128 | 0.147 | 0.464 | 0.385 | 0.201 | 0.104 | 0.0889 | 0.697 | 0.644 | 0.679 | 0.0946 | 0.591 | 0.286 | 0.27 | 0.105 | 0.0781 | 0.117
8 | COR-L 105 | 0.908 | 0.903 | 0.654 | 0.407 | 0.272 | 0.426 | 0.441 | 0.353 | 0.29 | 0.221 | 0.591 | 0.823 | 0.526 | 0.211 | 0.446 | 0.436 | 0.438 | 0.353 | 0.326 | 0.298
9 | Calu-6 | 0.956 | 0.835 | 0.268 | 0.117 | 0.11 | – | – | – | – | – | – | – | – | – | – | – | – | – | – | –
10 | ChaGo-K-1 | 1.04 | 0.991 | 0.948 | 0.335 | 0.2 | 0.638 | 0.476 | 0.49 | 0.163 | 0.128 | 0.622 | 0.531 | 0.32 | 0.134 | 1.01 | 0.907 | 0.661 | 0.267 | 0.194 | 0.182
11 | EKVX | 1.02 | 0.99 | 0.77 | 0.394 | 0.629 | 0.236 | 0.151 | 0.188 | – | 0.197 | 0.653 | 0.69 | 0.491 | 0.449 | 0.36 | 0.307 | 0.365 | 0.173 | 0.201 | –
12 | EMC-BAC-2 | 1.29 | 1.06 | 0.805 | 0.435 | 0.239 | 0.545 | 0.528 | 0.465 | 0.215 | 0.142 | 0.37 | 0.429 | 0.29 | 0.172 | 0.977 | 0.689 | 0.872 | 0.629 | 0.298 | 0.194
13 | EPLC-272H | 0.615 | 0.946 | 0.269 | 0.124 | 0.101 | – | 0.323 | 0.151 | 0.135 | 0.15 | – | 0.277 | 0.225 | 0.136 | 0.285 | 0.234 | 0.216 | 0.154 | 0.163 | 0.163
14 | H3255 | 0.971 | 0.947 | 0.866 | 0.398 | 0.608 | 0.365 | 0.37 | 0.282 | – | 0.304 | 0.599 | 0.536 | 0.485 | 0.34 | 0.609 | 0.545 | 0.568 | 0.411 | 0.301 | –
15 | HARA | 1.01 | 0.853 | 0.8 | 0.176 | 0.0967 | 0.469 | 0.395 | 0.364 | 0.0656 | 0.0542 | 0.445 | 0.504 | 0.244 | 0.0396 | 0.423 | – | 0.609 | 0.149 | 0.0917 | 0.0613
16 | HCC-15 | 0.944 | 0.964 | 0.437 | 0.157 | 0.122 | 0.486 | 0.383 | 0.204 | 0.122 | 0.0883 | 0.713 | 0.635 | 0.269 | 0.104 | 0.227 | 0.378 | 0.259 | 0.112 | 0.0946 | 0.127
17 | HCC-44 | 0.985 | 1 | 0.871 | 0.204 | 0.211 | 0.193 | 0.164 | 0.106 | 0.0862 | 0.118 | 0.626 | 0.484 | 0.216 | 0.161 | 0.977 | 0.935 | 0.874 | 0.387 | 0.225 | 0.187
18 | HCC-78 | 1.03 | 0.998 | 0.749 | 0.623 | 0.47 | 0.851 | 0.837 | 0.495 | 0.446 | 0.22 | 0.444 | 0.414 | 0.343 | 0.244 | 0.949 | 0.54 | 0.544 | 0.642 | 0.682 | 0.288
